The test system of test [1] is Caco2 (human intestinal epithelial cells). Nature of the test: Cytotoxic assay on human cells (resazurin). Conditions: Homo sapiens, Caco-2, 48 h, read-out: Inhibitory Concentration 50 (IC50) on cell viability, Caco2. In kind it is cell-based. The protocol:
(§1) The toxicity of berberine and berberine’s derivatives on human cells was evaluated using resazurin assay as previously described. Human cells used were BEAS (ATCC CRL-9609), Caco2 (ATCC HTB-37) and HepG2 (ATCC HB-8065) corresponding respectively to human airway epithelial cells, intestinal epithelial cells and liver cells. Cells were cultured in Dulbecco’s modified essential medium (DMEM) supplemented with 10% fetal bovine serum (FBS), 1% L-glutamine and 1% antibiotics (Thermo Fisher Scientific, Illkirch-Graffenstaden, France). Cells were routinely grown on 25 cm^2 flasks and maintained in a 5% CO2 incubator at 37 °C. For toxicity assay, cells were detached using trypsin–EDTA solution (Thermo Fisher Scientific), counted using Mallasez counting chamber and seeded into 96-well cell culture plates (Greiner bio-One, Dominique Dutscher, Brumath, France) at approximately 10,000 cells per well. The cells were left to grow for 48–72 h at 37 °C in a 5% CO2 incubator until they reached confluence. Media from wells was then aspirated and cells were treated with 100 µL of culture media containing increasing concentrations of berberine or berberine’s derivatives obtained by serial dilution (from 0 to 50 µM, 1:2 dilution), DMSO (0.5% DMSO final concentration) was used as negative control. After 48 h incubation at 37 °C in a 5% CO2 incubator, cell viability was evaluated using resazurin based in vitro toxicity assay kit (Sigma-Aldrich) following manufacturer’s instructions. Briefly, cell wells were emptied, and cells were treated with 100 µL of resazurin diluted 1:10 in sterile PBS containing calcium and magnesium (PBS^++, pH 7.4). After 4 h incubation at 37 °C, fluorescence intensity (excitation wavelength of 530 nm/emission wavelength of 590 nm) was measured using Synergy Mx microplate reader (Biotek). The fluorescence values were normalized by the controls (DMSO treated cells) and expressed as percent viability. The IC50 values of berberine and berberine’s derivatives on cell viability (i.e., the concentration of derivative causing a reduction of 50% of the cell viability) were calculated using GraphPad® Prism 7 software (San Diego, CA, USA). t-Test and two ways ANOVA analyses were used to address the significant differences between mean values with significance set at p < 0.05.
For orientation: Alamar Blue is a resazurin reagent that responds to reducing activity.

Test [2] concerns HepG2 (human liver cells). Nature of the test: Cytotoxic assay on human cells (resazurin). In kind it is cell-based. Conditions: HepG2, 48 h, read-out: Inhibitory Concentration 50 (IC50) on cell viability, HEPG2. The protocol:
as §1

Test [3] relates to BEAS (human airway epithelial cells). Nature of the test: Cytotoxic assay on human cells (resazurin). Conditions: Epithelial cell, 48 h, means +/−SD, read-out: Inhibitory Concentration 50 (IC50) on cell viability, BEAS. In kind it is cell-based. The protocol: as §1
The subject of another test is S. aureus. Nature of the test: MIC, antimicrobial activity assay. In kind it is cell-based, Staphylococcus aureus (ATCC 6538P). As to conditions: Staphylococcus aureus; Table 1 first screening; read-out: Minimal Inhibitory Concentration (MIC) S. aureus.
A further test deals with P. aeruginosa. Description: MIC, antimicrobial activity assay. In kind it is cell-based, Pseudomonas aeruginosa (ATCC 9027). Conditions: Pseudomonas aeruginosa; Table 1 first screening; read-out: Minimal Inhibitory Concentration (MIC) P. aeruginosa.
The next test deals with C. albicans. Nature of the test: MIC, antifungal activity assay. Conditions: Candida albicans; Table 1 first screening; 35 °C, 24 h; read-out: Minimal Inhibitory Concentration (MIC) C. albicans. The test is classed as cell-based, Candida albicans (DSM 10697).
The test system of a further test is E. coli. Nature of the test: MIC, antimicrobial activity assay. The test is classed as cell-based, Escherichia coli (ATCC 8739). As to conditions: Escherichia coli; Table 1 first screening; read-out: Minimal Inhibitory Concentration (MIC) E. coli.
In the next test the test system is M. smegmatis. Nature of the test: microbe, parasite or virus in culture. Conditions: Mycolicibacterium smegmatis, 72 h, read-out: Minimal Inhibitory Concentration (MIC) M. smegmatis. The test is classed as cell-based, Mycobacterium smegmatis (mc2155, ATCC 700084).
The test system of another test is B. subtilis. Description: MIC, antimicrobial activity assay. The test is classed as cell-based, Bacillus subtilis (ATCC 6633). As to conditions: Bacillus subtilis; Table 1 first screening; read-out: Minimal Inhibitory Concentration (MIC) B. subtilis.

Structures are written as SMILES.

For the compound `COc1ccc2c(Cc3ccc(CN)cc3)c3[n+](cc2c1OC)CCc1cc2c(cc1-3)OCO2` [Compound 11, 13-(4-Aminomethylbenzyl)Berberine], the IC50 in test [1], in test [2] and in test [3] was greater than 50 µM each time. In addition, the MIC with S. aureus was 25 µM; in the test on P. aeruginosa it was greater than 100 µM; in the test with C. albicans, 100 µM; in the test with E. coli, greater than 100 µM; in the test on M. smegmatis, 50 µM; in the test with B. subtilis it was 25 µM.

As for `COc1ccc2c(O)c3[n+](cc2c1OC)CCc1cc2c(cc1-3)OCO2` [Compound 2, 13-hydroxyberberine], the figures for the IC50 in test [1], in test [2] and in test [3] were 34.2 ± 3.8 µM, greater than 50 µM and greater than 50 µM, respectively. Further, the MIC was 12.5 to 25 µM in the test with S. aureus; greater than 100 µM with P. aeruginosa; greater than 100 µM in the test with C. albicans; greater than 100 µM in the test with E. coli; 25 µM in the test with M. smegmatis; 50 µM with B. subtilis.

In the case of `COc1ccc2c(Cc3ccc(-c4nc5ccccc5s4)cc3)c3[n+](cc2c1OC)CCc1cc2c(cc1-3)OCO2` [Compound 19], the IC50 was found to be 12 ± 1.3 µM in test [1], 31.2 ± 7.1 µM in test [2] and 4.92 ± 0.6 µM in test [3]. Moreover, the MIC was 1.5 to 3.12 µM with S. aureus; greater than 100 µM with P. aeruginosa; 6.25 µM with C. albicans; greater than 100 µM in the test on E. coli; 12.5 µM in the test with M. smegmatis; 1.5 µM in the test on B. subtilis.

On to `COc1ccc(Cc2c3[n+](cc4c(OC)c(OC)ccc24)CCc2cc4c(cc2-3)OCO4)c(OC)c1OC` [Compound 14, 13[(2,3,4-Trimethoxyphenyl)methyl]Berberine], for which the IC50 in test [1], in test [2] and in [3] was greater than 50 µM in each case. For the same compound, the MIC in the test with S. aureus is 25 µM; in the test on P. aeruginosa, greater than 100 µM; in the test on C. albicans, greater than 100 µM; with E. coli it was greater than 100 µM; in the test on M. smegmatis, 25 µM; in the test with B. subtilis, 50 µM.

As to `C=Cc1ccc(Cc2c3[n+](cc4c(OC)c(OC)ccc24)CCc2cc4c(cc2-3)OCO4)cc1` [Compound 9, 13-(4-Ethenylbenzyl)Berberine], the IC50 in test [1] is 24.8 ± 3.6 µM; in test [2], greater than 50 µM; in [3] it was 12.8 ± 1.6 µM. In addition, the MIC is 3.12 µM in the test on S. aureus; greater than 100 µM with P. aeruginosa; 50 µM in the test on C. albicans; greater than 100 µM in the test on E. coli; 6.25 µM in the test with M. smegmatis; 12.5 µM in the test with B. subtilis.

In the case of `COc1ccc2c(Cc3ccc4c(c3)OCO4)c3[n+](cc2c1OC)CCc1cc2c(cc1-3)OCO2` [Compound 13, 13-[(2H-1,3-Benzodioxol-5-yl)methyl]Berberine], the values for the IC50 in test [1], in [2] and in test [3] were 31.4 ± 3.8 µM, greater than 50 µM and 16.9 ± 1.5 µM, respectively. For the same compound, the MIC in the test on S. aureus was 6.25 to 12.5 µM; in the test on P. aeruginosa, greater than 100 µM; in the test with C. albicans, 50 µM; with E. coli it was greater than 100 µM; in the test with M. smegmatis, 12.5 µM; in the test on B. subtilis, 25 µM.

Source of the values: article PMC7400437, “Synthesis and Evaluation of the Antibacterial Activities of 13-Substituted Berberine Derivatives” (Antibiotics, 2020).
